Measured values as given in ChEMBL document CHEMBL1147536, “Synthesis and biochemical properties of E-ring modified luotonin A derivatives” (2004).

Experiments:
Type in all cases: functional
Saccharomyces cerevisiae [1] = assay: Percent inhibitory activity of 100 uM of compound against growth of Saccharomyces cerevisiae transfected with human topoisomerase-1 in medium containing galactose
Saccharomyces cerevisiae [2] = assay: Percent inhibitory activity of 50 uM of compound against growth of Saccharomyces cerevisiae transfected with human topoisomerase-1 in medium containing galactose
Saccharomyces cerevisiae [3] = assay: Percent inhibitory activity of 50 uM of compound against growth of Saccharomyces cerevisiae transfected with human topoisomerase-1 in medium containing raffinose
Saccharomyces cerevisiae [4] = assay: Percent inhibitory activity of 100 uM of compound against growth of Saccharomyces cerevisiae transfected with human topoisomerase-1 in medium containing raffinose
Saccharomyces cerevisiae [5] = assay: Percent inhibitory activity of 10 uM of compound against growth of Saccharomyces cerevisiae transfected with human topoisomerase-1 in medium containing raffinose
Saccharomyces cerevisiae [6] = assay: Percent inhibitory activity of 1 uM of compound against growth of Saccharomyces cerevisiae transfected with human topoisomerase-1 in medium containing raffinose
Saccharomyces cerevisiae [7] = assay: Percent inhibitory activity of 1 uM of compound against growth of Saccharomyces cerevisiae transfected with human topoisomerase-1 in medium containing galactose
Saccharomyces cerevisiae [8] = assay: Percent inhibitory activity of 10 uM of compound against growth of Saccharomyces cerevisiae transfected with human topoisomerase-1 in medium containing galactose
Saccharomyces cerevisiae [9] = assay: Percent inhibitory activity of 25 uM of compound against growth of Saccharomyces cerevisiae transfected with human topoisomerase-1 in medium containing galactose
Saccharomyces cerevisiae [10] = assay: Percent inhibitory activity of 25 uM of compound against growth of Saccharomyces cerevisiae transfected with human topoisomerase-1 in medium containing raffinose
Saccharomyces cerevisiae [11] = assay: Percent inhibitory activity of 5 uM of compound against growth of Saccharomyces cerevisiae transfected with human topoisomerase-1 in medium containing raffinose
Saccharomyces cerevisiae [12] = assay: Percent inhibitory activity of 5 uM of compound against growth of Saccharomyces cerevisiae transfected with human topoisomerase-1 in medium containing galactose
Saccharomyces cerevisiae [13] = assay: Percent inhibitory activity of 15 uM of compound against growth of Saccharomyces cerevisiae transfected with human topoisomerase-1 in medium containing raffinose
Saccharomyces cerevisiae [14] = assay: Percent inhibitory activity of 1.5 uM of compound against growth of Saccharomyces cerevisiae transfected with human topoisomerase-1 in medium containing raffinose
Saccharomyces cerevisiae [15] = assay: Percent inhibitory activity of 1.5 uM of compound against growth of Saccharomyces cerevisiae transfected with human topoisomerase-1 in medium containing galactose
Saccharomyces cerevisiae [16] = assay: Percent inhibitory activity of 0.75 uM of compound against growth of Saccharomyces cerevisiae transfected with human topoisomerase-1 in medium containing raffinose
Saccharomyces cerevisiae [17] = assay: Percent inhibitory activity of 15 uM of compound against growth of Saccharomyces cerevisiae transfected with human topoisomerase-1 in medium containing galactose
Saccharomyces cerevisiae [18] = assay: Percent inhibitory activity of 0.75 uM of compound against growth of Saccharomyces cerevisiae transfected with human topoisomerase-1 in medium containing galactose
Saccharomyces cerevisiae [19] = assay: Percent inhibitory activity of 0.5 uM of compound against growth of Saccharomyces cerevisiae transfected with human topoisomerase-1 in medium containing galactose
Saccharomyces cerevisiae [20] = assay: Percent inhibitory activity of 0.5 uM of compound against growth of Saccharomyces cerevisiae transfected with human topoisomerase-1 in medium containing raffinose

SMILES	Inhibition (Saccharomyces cerevisiae [2])	Inhibition (Saccharomyces cerevisiae [3])	Inhibition (Saccharomyces cerevisiae [5])	Inhibition (Saccharomyces cerevisiae [6])	Inhibition (Saccharomyces cerevisiae [7])	Inhibition (Saccharomyces cerevisiae [8])	also measured
O=c1c2c(nc3n1Cc1cc4ccccc4nc1-3)CCCC2	46%	3%					Inhibition (Saccharomyces cerevisiae [1]): 51%; Inhibition (Saccharomyces cerevisiae [4]): 18%
O=c1c2cccc(O)c2nc2n1Cc1cc3ccccc3nc1-2	9%	0%					Inhibition (Saccharomyces cerevisiae [1]): 13%; Inhibition (Saccharomyces cerevisiae [4]): 7%
Cc1ccc2nc3n(c(=O)c2c1)Cc1cc2ccccc2nc1-3			39%	8%	14%	49%	
O=c1c2ccc(F)cc2nc2n1Cc1cc3ccccc3nc1-2	73%	14%					Inhibition (Saccharomyces cerevisiae [9]): 40%; Inhibition (Saccharomyces cerevisiae [10]): 0%
O=c1c2cc(F)c(F)cc2nc2n1Cc1cc3ccccc3nc1-2			53%	26%	0%	0%	
COc1cccc2c(=O)n3c(nc12)-c1nc2ccccc2cc1C3 [16-METHOXYLUOTONIN A]							Inhibition (Saccharomyces cerevisiae [9]): 2%; Inhibition (Saccharomyces cerevisiae [11]): 35%; Inhibition (Saccharomyces cerevisiae [10]): 47%; Inhibition (Saccharomyces cerevisiae [12]): 0%
CC[C@@]1(O)C(=O)OCc2c1cc1n(c2=O)Cc2cc3ccccc3nc2-1 [CAMPTOTHECIN]							Inhibition (Saccharomyces cerevisiae [13]): 18%; Inhibition (Saccharomyces cerevisiae [14]): 19%; Inhibition (Saccharomyces cerevisiae [15]): 68%; Inhibition (Saccharomyces cerevisiae [16]): 10%; Inhibition (Saccharomyces cerevisiae [17]): 78%; Inhibition (Saccharomyces cerevisiae [18]): 40%
O=c1c2ccccc2nc2n1Cc1cc3ccccc3nc1-2 [LUOTONIN A]			35%	0%	36%	56%	Inhibition (Saccharomyces cerevisiae [19]): 23%; Inhibition (Saccharomyces cerevisiae [20]): 0%
